{
  "source": "ChEMBL document CHEMBL4049403",
  "about": "“Oligo-aspartic acid conjugates with benzo[c][2,6]naphthyridine-8-carboxylic acid scaffold as picomolar inhibitors of CK2” (Bioorg Med Chem, 2017)",
  "key": {"[1]": {"target": "Inhibitor of nuclear factor kappa-B kinase subunit epsilon (Homo sapiens) (UniProt Q14164)", "assay": "Inhibition of human IKKe assessed as residual activity at 1 uM in presence of 33P-ATP by filter-binding assay relative to control"}, "[2]": {"target": "AMP-activated protein kinase, AMPK (Homo sapiens) (UniProt P54646+O43741+P54619+Q9UGJ0+Q9Y478+Q13131+Q9UGI9)", "assay": "Inhibition of human AMPK assessed as residual activity at 1 uM in presence of 33P-ATP by filter-binding assay relative to control"}, "[3]": {"target": "Ribosomal protein S6 kinase alpha-1 (Homo sapiens) (UniProt Q15418)", "assay": "Inhibition of human RSK1 assessed as residual activity at 1 uM in presence of 33P-ATP by filter-binding assay relative to control"}, "[4]": {"target": "Protein kinase C alpha type (Homo sapiens) (UniProt P17252)", "assay": "Inhibition of human PKCa assessed as residual activity at 1 uM in presence of [33P]ATP by filter binding assay relative to control"}, "[5]": {"target": "Interleukin-1 receptor-associated kinase 4 (Homo sapiens) (UniProt Q9NWZ3)", "assay": "Inhibition of human IRAK4 assessed as residual activity at 1 uM in presence of [33P]ATP by filter binding assay relative to control"}, "[6]": {"target": "Serine/threonine-protein kinase PLK1 (Homo sapiens) (UniProt P53350)", "assay": "Inhibition of human PLK1 assessed as residual activity at 1 uM in presence of 33P-ATP by filter-binding assay relative to control"}, "[7]": {"target": "MAP kinase-activated protein kinase 5 (Homo sapiens) (UniProt Q8IW41)", "assay": "Inhibition of human PRAK assessed as residual activity at 1 uM in presence of [33P]ATP by filter binding assay relative to control"}, "[8]": {"target": "Dual specificity mitogen-activated protein kinase kinase 6 (Homo sapiens) (UniProt P52564)", "sequence (P52564 whole entry)": "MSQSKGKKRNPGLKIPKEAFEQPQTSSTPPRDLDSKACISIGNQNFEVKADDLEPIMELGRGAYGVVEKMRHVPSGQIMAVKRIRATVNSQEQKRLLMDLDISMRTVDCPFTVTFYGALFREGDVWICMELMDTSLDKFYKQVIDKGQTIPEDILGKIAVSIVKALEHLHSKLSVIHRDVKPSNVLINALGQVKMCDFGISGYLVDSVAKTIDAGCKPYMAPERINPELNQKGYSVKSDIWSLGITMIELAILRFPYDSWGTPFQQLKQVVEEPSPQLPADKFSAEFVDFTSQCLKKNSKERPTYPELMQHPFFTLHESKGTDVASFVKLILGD", "assay": "Inhibition of human MKK6 assessed as residual activity at 1 uM in presence of [33P]ATP by filter binding assay relative to control"}, "[9]": {"target": "Eukaryotic elongation factor 2 kinase (Homo sapiens) (UniProt O00418)", "assay": "Inhibition of human EF2K assessed as residual activity at 1 uM in presence of [33P]ATP by filter binding assay relative to control"}, "[10]": {"target": "Serine/threonine-protein kinase N2 (Homo sapiens) (UniProt Q16513)", "assay": "Inhibition of human PRK2 assessed as residual activity at 1 uM in presence of [33P]ATP by filter binding assay relative to control"}, "[11]": {"target": "Ephrin type-A receptor 4 (Homo sapiens) (UniProt P54764)", "assay": "Inhibition of human EPH-A4 assessed as residual activity at 1 uM in presence of [33P]ATP by filter binding assay relative to control"}, "[12]": {"target": "Serine/threonine-protein kinase Nek6 (Homo sapiens) (UniProt Q9HC98)", "sequence (Q9HC98 whole entry)": "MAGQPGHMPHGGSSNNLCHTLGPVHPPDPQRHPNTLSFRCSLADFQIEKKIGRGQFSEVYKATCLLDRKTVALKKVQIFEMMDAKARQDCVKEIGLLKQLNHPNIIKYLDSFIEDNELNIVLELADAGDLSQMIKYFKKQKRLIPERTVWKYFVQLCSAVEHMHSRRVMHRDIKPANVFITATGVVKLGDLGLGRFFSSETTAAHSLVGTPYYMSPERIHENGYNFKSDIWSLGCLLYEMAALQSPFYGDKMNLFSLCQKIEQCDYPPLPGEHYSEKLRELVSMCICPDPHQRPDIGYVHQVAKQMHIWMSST", "assay": "Inhibition of human NEK6 assessed as residual activity at 1 uM in presence of [33P]ATP by filter binding assay relative to control"}, "[13]": {"target": "Serine/threonine-protein kinase MARK2 (Homo sapiens) (UniProt Q7KZI7)", "sequence (Q7KZI7 whole entry)": "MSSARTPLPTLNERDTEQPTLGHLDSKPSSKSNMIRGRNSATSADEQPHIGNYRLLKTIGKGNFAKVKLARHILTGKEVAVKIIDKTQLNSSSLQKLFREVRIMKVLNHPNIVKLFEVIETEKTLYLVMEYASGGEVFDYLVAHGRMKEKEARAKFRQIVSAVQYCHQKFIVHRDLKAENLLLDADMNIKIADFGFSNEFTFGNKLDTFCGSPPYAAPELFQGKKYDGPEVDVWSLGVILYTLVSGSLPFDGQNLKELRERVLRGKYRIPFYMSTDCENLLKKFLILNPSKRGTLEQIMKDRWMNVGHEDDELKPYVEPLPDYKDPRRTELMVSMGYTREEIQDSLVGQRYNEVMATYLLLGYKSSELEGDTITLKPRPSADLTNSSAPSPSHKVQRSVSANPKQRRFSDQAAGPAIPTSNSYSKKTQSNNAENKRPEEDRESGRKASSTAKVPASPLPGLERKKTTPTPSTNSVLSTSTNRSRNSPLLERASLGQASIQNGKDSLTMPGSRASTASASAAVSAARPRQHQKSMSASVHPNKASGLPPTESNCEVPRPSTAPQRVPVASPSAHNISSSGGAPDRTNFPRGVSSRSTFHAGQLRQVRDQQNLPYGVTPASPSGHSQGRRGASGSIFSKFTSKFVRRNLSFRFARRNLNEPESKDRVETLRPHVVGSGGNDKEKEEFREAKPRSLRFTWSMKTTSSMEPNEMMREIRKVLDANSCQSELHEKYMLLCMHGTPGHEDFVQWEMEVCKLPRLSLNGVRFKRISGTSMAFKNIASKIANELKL", "assay": "Inhibition of human MARK2 assessed as residual activity at 1 uM in presence of [33P]ATP by filter binding assay relative to control"}, "[14]": {"target": "Calcium/calmodulin-dependent protein kinase type 1 (Homo sapiens) (UniProt Q14012)", "sequence (Q14012 whole entry, looked up)": "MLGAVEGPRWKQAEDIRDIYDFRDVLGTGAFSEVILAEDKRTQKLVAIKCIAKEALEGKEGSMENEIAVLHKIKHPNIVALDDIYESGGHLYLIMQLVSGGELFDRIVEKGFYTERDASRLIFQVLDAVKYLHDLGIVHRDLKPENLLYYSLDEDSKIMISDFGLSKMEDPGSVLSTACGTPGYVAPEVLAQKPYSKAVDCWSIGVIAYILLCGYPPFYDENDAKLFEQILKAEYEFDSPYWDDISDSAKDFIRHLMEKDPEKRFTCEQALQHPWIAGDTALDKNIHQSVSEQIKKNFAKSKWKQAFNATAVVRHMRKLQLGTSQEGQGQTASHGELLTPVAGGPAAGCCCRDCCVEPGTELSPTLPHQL", "assay": "Inhibition of human CAMK1 assessed as residual activity at 1 uM in presence of [33P]ATP by filter binding assay relative to control"}, "[15]": {"target": "Protein kinase C zeta type (Homo sapiens) (UniProt Q05513)", "assay": "Inhibition of human PKCZ assessed as residual activity at 1 uM in presence of [33P]ATP by filter binding assay relative to control"}, "[16]": {"target": "Maternal embryonic leucine zipper kinase (Homo sapiens) (UniProt Q14680)", "sequence (Q14680 whole entry, looked up)": "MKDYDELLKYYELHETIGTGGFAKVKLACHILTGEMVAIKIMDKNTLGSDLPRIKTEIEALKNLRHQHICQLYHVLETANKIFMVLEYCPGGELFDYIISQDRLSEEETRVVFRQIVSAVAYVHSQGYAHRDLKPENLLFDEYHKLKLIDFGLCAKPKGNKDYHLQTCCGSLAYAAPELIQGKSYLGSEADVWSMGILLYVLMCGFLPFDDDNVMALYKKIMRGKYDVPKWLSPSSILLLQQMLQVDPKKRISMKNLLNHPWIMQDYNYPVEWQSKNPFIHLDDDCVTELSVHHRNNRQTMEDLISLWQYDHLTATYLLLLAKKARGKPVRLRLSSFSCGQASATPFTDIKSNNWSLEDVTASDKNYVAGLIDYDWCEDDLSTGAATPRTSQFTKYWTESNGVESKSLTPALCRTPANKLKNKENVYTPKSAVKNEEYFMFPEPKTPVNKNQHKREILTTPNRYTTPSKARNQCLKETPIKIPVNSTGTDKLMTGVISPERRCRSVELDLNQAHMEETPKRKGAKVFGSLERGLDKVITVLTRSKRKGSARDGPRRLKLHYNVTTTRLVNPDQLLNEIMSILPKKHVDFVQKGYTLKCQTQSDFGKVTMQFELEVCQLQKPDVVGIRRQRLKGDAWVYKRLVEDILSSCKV", "assay": "Inhibition of human MELK assessed as residual activity at 1 uM in presence of [33P]ATP by filter binding assay relative to control"}, "[17]": {"target": "Ribosomal protein S6 kinase alpha-5 (Homo sapiens) (UniProt O75582)", "assay": "Inhibition of human MSK1 assessed as residual activity at 1 uM in presence of 33P-ATP by filter-binding assay relative to control"}, "[18]": {"target": "Serine/threonine-protein kinase WNK1 (Homo sapiens) (UniProt Q9H4A3)", "assay": "Inhibition of human WNK1 assessed as residual activity at 1 uM in presence of [33P]ATP by filter binding assay relative to control"}, "[19]": {"target": "Mitogen-activated protein kinase kinase kinase kinase 5 (Homo sapiens) (UniProt Q9Y4K4)", "assay": "Inhibition of human MAP4K5 assessed as residual activity at 1 uM in presence of [33P]ATP by filter binding assay relative to control"}, "[20]": {"target": "Serine/threonine-protein kinase Sgk1 (Homo sapiens) (UniProt O00141)", "sequence (O00141 whole entry)": "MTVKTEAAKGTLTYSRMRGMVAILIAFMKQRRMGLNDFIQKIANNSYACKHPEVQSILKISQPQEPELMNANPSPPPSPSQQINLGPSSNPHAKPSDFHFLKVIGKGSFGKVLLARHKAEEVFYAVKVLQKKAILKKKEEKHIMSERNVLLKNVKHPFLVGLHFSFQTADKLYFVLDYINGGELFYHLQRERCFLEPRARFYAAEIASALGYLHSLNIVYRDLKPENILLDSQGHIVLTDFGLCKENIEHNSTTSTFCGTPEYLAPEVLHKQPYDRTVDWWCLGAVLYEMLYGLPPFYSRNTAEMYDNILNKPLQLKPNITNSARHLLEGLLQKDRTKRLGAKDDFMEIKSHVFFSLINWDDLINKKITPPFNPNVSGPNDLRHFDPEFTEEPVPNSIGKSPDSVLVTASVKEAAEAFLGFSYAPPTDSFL", "assay": "Inhibition of human SGK1 assessed as residual activity at 1 uM in presence of [33P]ATP by filter binding assay relative to control"}, "[21]": {"target": "MAP kinase-activated protein kinase 3 (Homo sapiens) (UniProt Q16644)", "sequence (Q16644 whole entry, looked up)": "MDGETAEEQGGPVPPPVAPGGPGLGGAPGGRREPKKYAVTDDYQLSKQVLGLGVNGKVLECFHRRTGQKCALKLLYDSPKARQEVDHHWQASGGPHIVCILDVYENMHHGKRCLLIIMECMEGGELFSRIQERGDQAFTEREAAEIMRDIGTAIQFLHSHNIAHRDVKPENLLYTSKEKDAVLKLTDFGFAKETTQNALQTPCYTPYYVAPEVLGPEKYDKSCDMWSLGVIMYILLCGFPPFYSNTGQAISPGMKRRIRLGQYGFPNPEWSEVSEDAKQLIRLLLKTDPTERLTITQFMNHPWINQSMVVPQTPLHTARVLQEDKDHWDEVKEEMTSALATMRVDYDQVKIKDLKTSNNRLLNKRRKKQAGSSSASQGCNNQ", "assay": "Inhibition of human MAPKAP-K3 assessed as residual activity at 1 uM in presence of [33P]ATP by filter binding assay relative to control"}, "[22]": {"target": "Tyrosine-protein kinase JAK2 (Homo sapiens) (UniProt O60674)", "assay": "Inhibition of human JAK2 assessed as residual activity at 1 uM in presence of [33P]ATP by filter binding assay relative to control"}, "[23]": {"target": "Mitogen-activated protein kinase kinase kinase 9 (Homo sapiens) (UniProt P80192)", "assay": "Inhibition of human MLK1 assessed as residual activity at 1 uM in presence of 33P-ATP by filter-binding assay relative to control"}, "[24]": {"target": "Ephrin type-B receptor 3 (Homo sapiens) (UniProt P54753)", "assay": "Inhibition of human EPHB3 assessed as residual activity at 1 uM in presence of 33P-ATP by filter-binding assay relative to control"}, "[25]": {"target": "Protein kinase C gamma type (Homo sapiens) (UniProt P05129)", "assay": "Inhibition of human PKCgamma assessed as residual activity at 1 uM in presence of [33P]ATP by filter binding assay relative to control"}, "[26]": {"target": "Dual specificity testis-specific protein kinase 1 (Homo sapiens) (UniProt Q15569)", "sequence (Q15569 whole entry, looked up)": "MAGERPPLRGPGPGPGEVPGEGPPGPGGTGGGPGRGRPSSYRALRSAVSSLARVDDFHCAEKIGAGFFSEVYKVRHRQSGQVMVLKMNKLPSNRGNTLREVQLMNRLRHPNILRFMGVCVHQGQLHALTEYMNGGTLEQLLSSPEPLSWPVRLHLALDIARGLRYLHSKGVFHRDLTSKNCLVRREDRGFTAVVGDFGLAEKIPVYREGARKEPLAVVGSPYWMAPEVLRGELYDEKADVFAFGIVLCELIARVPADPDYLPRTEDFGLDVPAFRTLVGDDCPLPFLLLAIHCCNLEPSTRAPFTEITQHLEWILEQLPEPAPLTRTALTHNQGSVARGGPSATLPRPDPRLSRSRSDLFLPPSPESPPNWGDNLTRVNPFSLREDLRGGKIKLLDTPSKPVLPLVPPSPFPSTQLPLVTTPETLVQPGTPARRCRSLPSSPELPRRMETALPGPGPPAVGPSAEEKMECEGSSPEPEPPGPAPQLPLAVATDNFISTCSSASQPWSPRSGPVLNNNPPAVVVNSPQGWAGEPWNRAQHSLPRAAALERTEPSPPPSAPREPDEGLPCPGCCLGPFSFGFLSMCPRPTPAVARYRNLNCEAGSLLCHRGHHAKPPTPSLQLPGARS", "assay": "Inhibition of human TESK1 assessed as residual activity at 1 uM in presence of [33P]ATP by filter binding assay relative to control"}, "[27]": {"target": "Dual specificity tyrosine-phosphorylation-regulated kinase 1A (Homo sapiens) (UniProt Q13627)", "assay": "Inhibition of human DYRK1A assessed as residual activity at 1 uM in presence of 33P-ATP by filter-binding assay relative to control"}, "[28]": {"system": "Serine/threonine-protein kinase MAP4K2 (Homo sapiens)", "assay": "Inhibition of human GCK assessed as residual activity at 1 uM in presence of 33P-ATP by filter-binding assay relative to control"}, "[29]": {"target": "Tyrosine-protein kinase ABL1 (Homo sapiens) (UniProt P00519)", "sequence (P00519 whole entry)": "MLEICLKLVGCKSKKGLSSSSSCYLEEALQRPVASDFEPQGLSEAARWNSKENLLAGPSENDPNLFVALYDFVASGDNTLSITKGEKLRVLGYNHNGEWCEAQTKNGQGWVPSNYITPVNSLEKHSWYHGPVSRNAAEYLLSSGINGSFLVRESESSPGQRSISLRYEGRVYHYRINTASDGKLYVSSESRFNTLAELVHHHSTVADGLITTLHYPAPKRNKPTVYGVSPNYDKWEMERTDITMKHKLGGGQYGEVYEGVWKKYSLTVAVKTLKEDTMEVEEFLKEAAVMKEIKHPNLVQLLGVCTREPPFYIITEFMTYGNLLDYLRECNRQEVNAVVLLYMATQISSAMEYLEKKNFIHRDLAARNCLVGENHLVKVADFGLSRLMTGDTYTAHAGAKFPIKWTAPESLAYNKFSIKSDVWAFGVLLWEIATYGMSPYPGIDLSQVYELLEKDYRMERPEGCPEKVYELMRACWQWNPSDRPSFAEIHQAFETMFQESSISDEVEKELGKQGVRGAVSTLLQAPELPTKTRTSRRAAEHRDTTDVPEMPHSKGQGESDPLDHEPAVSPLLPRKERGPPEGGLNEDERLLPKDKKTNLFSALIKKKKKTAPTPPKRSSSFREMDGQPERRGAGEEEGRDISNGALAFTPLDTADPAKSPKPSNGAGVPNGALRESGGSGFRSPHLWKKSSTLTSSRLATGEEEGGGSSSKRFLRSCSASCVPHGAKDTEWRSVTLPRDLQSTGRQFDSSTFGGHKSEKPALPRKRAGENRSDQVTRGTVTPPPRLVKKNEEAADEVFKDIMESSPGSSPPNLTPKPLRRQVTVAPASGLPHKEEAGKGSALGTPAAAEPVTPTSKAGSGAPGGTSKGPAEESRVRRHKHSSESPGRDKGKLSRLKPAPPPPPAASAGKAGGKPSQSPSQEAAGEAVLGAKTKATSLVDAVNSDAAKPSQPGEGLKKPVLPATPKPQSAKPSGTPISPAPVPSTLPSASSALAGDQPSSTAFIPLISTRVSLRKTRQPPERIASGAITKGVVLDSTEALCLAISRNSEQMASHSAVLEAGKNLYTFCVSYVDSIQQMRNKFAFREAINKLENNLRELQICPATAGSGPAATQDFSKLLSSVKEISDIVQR", "assay": "Inhibition of human ABL assessed as residual activity at 1 uM in presence of [33P]ATP by filter binding assay relative to control"}},
  "note": "Where a SMILES comes first, the peptide text is derived from it. The star is where a group is joined. X1 = O=C(O)c1ccc2c(c1)nc(OCCCCCCCCC(=O)*)c1ccncc12",
  "data": [
    {"smiles": "NCCCC[C@H](NC(=O)[C@H](CC(=O)O)NC(=O)[C@H](CC(=O)O)NC(=O)[C@H](CC(=O)O)NC(=O)[C@H](CC(=O)O)NC(=O)[C@H](CC(=O)O)NC(=O)[C@H](CC(=O)O)NC(=O)CCCCCCCCOc1nc2cc(C(=O)O)ccc2c2cnccc12)C(=O)O", "note": "(X1-DDDDDDK-OH)", "values": [
      {"measurement": "Activity", "setting": "[1]", "value": 13, "unit": "%"},
      {"measurement": "Activity", "setting": "[2]", "value": 11, "unit": "%"},
      {"measurement": "Activity", "setting": "[3]", "value": 50, "unit": "%"},
      {"measurement": "Activity", "setting": "[4]", "value": 93, "unit": "%"},
      {"measurement": "Activity", "setting": "[5]", "value": 103, "unit": "%"},
      {"measurement": "Activity", "setting": "[6]", "value": 23, "unit": "%"},
      {"measurement": "Activity", "setting": "[7]", "value": 92, "unit": "%"},
      {"measurement": "Activity", "setting": "[8]", "value": 74, "unit": "%"},
      {"measurement": "Activity", "setting": "[9]", "value": 100, "unit": "%"},
      {"measurement": "Activity", "setting": "[10]", "value": 90, "unit": "%"},
      {"measurement": "Activity", "setting": "[11]", "value": 104, "unit": "%"},
      {"measurement": "Activity", "setting": "[12]", "value": 90, "unit": "%"},
      {"measurement": "Activity", "setting": "[13]", "value": 75, "unit": "%"},
      {"measurement": "Activity", "setting": "[14]", "value": 89, "unit": "%"},
      {"measurement": "Activity", "setting": "[15]", "value": 95, "unit": "%"},
      {"measurement": "Activity", "setting": "[16]", "value": 93, "unit": "%"},
      {"measurement": "Activity", "setting": "[17]", "value": 58, "unit": "%"},
      {"measurement": "Activity", "setting": "[18]", "value": 96, "unit": "%"},
      {"measurement": "Activity", "setting": "[19]", "value": 87, "unit": "%"},
      {"measurement": "Activity", "setting": "[20]", "value": 84, "unit": "%"},
      {"measurement": "Activity", "setting": "[21]", "value": 82, "unit": "%"},
      {"measurement": "Activity", "setting": "[22]", "value": 72, "unit": "%"},
      {"measurement": "Activity", "setting": "[23]", "value": 42, "unit": "%"},
      {"measurement": "Activity", "setting": "[24]", "value": 56, "unit": "%"},
      {"measurement": "Activity", "setting": "[25]", "value": 94, "unit": "%"},
      {"measurement": "Activity", "setting": "[26]", "value": 94, "unit": "%"},
      {"measurement": "Activity", "setting": "[27]", "value": 9, "unit": "%"},
      {"measurement": "Activity", "setting": "[28]", "value": 15, "unit": "%"},
      {"measurement": "Activity", "setting": "[29]", "value": 100, "unit": "%"}
    ]}
  ]
}
